Legend:
[1] = test system: mouse model of stroke induced by middle cerebral artery occlusion (MCAO); experiment: Cerebral infarct volume by TTC staining, time of treatment (Example 2); assay type: in vivo, ICR mice; details: 48 h after reperfusion; for Improvement rate of infarction: vs model
Protocol: (§1) The administration of 10 mg/kg butylphthalide and 50 mg/kg ALMB-0166 was started 30 minutes, 2 hours, or 6 hours after the MCAO procedure of the mice. Ninety-six (96) ICR mice received behavioral training after adaptive feeding period and before the operation to establish stroke models. The behavioral training included beam-walking and rotarod test. The experimental mice were then randomly divided into 8 groups according to the values of the body weight, with 12 mice in each test group as described in Table 1. The mice were fasted overnight before modeling and were anesthetized with isoflurane. Right middle cerebral artery occlusion (MCAO) was induced in mice using the intraluminal filament technique to mimic focal cerebral ischemic stroke. After 1 hr, reperfusion was allowed by removing the occlusion. Administration of each treatment was performed 0.5 hrs, 2 hrs, or 6 hrs after the infarction. The neurological function score was evaluated at 24 hrs and 48 hrs after reperfusion, as was assessed by beam-walking, grip strength, and rotarod tests. At 48 hrs after reperfusion, the whole brain tissue of all rats was harvested to assess the cerebral infarct area by TTC staining, as well as to measure brain volume and brain water content, two indicators of acute cerebral edema.

[2] = test system: rat model of stroke induced by middle cerebral artery occlusion (MCAO); experiment: Rotarod test, dosing regimen (Example 4); assay type: in vivo, SD rats; details: 10 mg/kg (table label) i.v. Bid from 30 min after infarction
Protocol: (§2) The first administration of the respective treatments was started 30 minutes (Day 1 of study) after the MCAO procedure of the rats. For the butylphthalide group, subsequent doses were administered every day after for 14 days. For the ALMB-0166 test groups, a second dose of the antibody was administered at Day 4 post-stroke (Day 4 of the study). Thirty-six (36) SD rats received behavioral training after adaptive feeding period and before the operation to establish stroke models. The behavioral training included beam-walking, grip and rotarod tests. The experimental rats were then randomly divided into 6 groups according to the body weight, with 6 rats in each test group as described in Table 15. The rats were fasted overnight before modeling and were anesthetized with isoflurane. Right middle cerebral artery occlusion (MCAO) was induced in each rat using the intraluminal filament technique to mimic focal cerebral ischemic stroke. After 2 hrs, reperfusion was allowed by removing the occlusion. Administration of butylphthalide was performed 0.5 hrs after the infarction, and every day after the operation (14 days). Administration of ALMB-0166 and the vehicle treatment was performed at 0.5 hrs and at Day 4 after the operation. The body weight of rats was recorded before the operation (Day 0 of study) and on Days 2, 4, 7, and 11 after the procedure. The rats were scored by the Longa method at Day 1 (24-hours) post-procedure. The neurological function was evaluated at Days 1, 2, 4, 7, and 14 after the procedure, and was assessed by beam-walking, grip strength, and rotarod tests. At Day 14 after reperfusion, the whole brain tissue of all rats was harvested to assess the cerebral infarct area by TTC staining. The total infarct volume was determined, and the infarct volume ratio was calculated by dividing the total infarct volume by the whole brain volume. For calculating the infarct volume rate, the difference in infarct volume ratio between the model group and the corresponding administration group was divided by the infarct volume ratio of the model group.

[3] = test system: mouse model of stroke induced by middle cerebral artery occlusion (MCAO); experiment: Grip strength (Example 1); assay type: in vivo, ICR mice; details: 10 mg/kg i.v. Bid from 30 min after infarction
Protocol: (§3) The administration of the respective treatments was started 30 minutes after the MCAO procedure of the mice.
(§4) Seventy-two (72) ICR mice received behavioral training after adaptive feeding period and before the operation to establish stroke models. The behavioral training included beam-walking and rotarod test. The experimental mice were then randomly divided into 6 groups according to the values of the body weight, with 12 mice in each test group as described in Table 1.
(§5) The mice were fasted overnight before modeling and were anesthetized with isoflurane. Right middle cerebral artery occlusion (MCAO) was induced in mice using the intraluminal filament technique to mimic focal cerebral ischemic stroke. After 1 hr, reperfusion was allowed by removing the occlusion. During the operation, a white light was used to maintain the mouse rectal temperature between 36.5° C.-37.0° C.
(§6) Administration of each treatment was performed 0.5 h after the infarction. The neurological function score was evaluated at 24 hrs and 48 hrs after reperfusion, as was assessed by beam-walking, grip strength, and rotarod tests. At 48 h after reperfusion, the whole brain tissue of all rats was harvested to assess the cerebral infarct area by TTC staining, as well as to measure brain volume and brain water content, two indicators of acute cerebral edema.

[4] = test system: rat model of stroke induced by middle cerebral artery occlusion (MCAO); experiment: Beam-walking test, dosing regimen (Example 4); assay type: in vivo, SD rats; details: 10 mg/kg (table label) i.v. Bid from 30 min after infarction
Protocol: as §2

[5] = test system: mouse model of stroke induced by middle cerebral artery occlusion (MCAO); experiment: Beam-walking test, time of treatment (Example 2); assay type: in vivo, ICR mice
Protocol: as §1

[6] = test system: mouse model of stroke induced by middle cerebral artery occlusion (MCAO); experiment: Brain volume, time of treatment (Example 2); assay type: in vivo, ICR mice; details: 48 h after reperfusion
Protocol: as §1

[7] = test system: mouse model of stroke induced by middle cerebral artery occlusion (MCAO); experiment: Brain water content (Example 1); assay type: in vivo, ICR mice; details: 10 mg/kg i.v. Bid from 30 min after infarction; 48 h after reperfusion
Protocol: as §3, §4, §5, §6

[8] = test system: mouse model of stroke induced by middle cerebral artery occlusion (MCAO); experiment: Brain volume (Example 1); assay type: in vivo, ICR mice; details: 10 mg/kg i.v. Bid from 30 min after infarction; 48 h after reperfusion
Protocol: as §3, §4, §5, §6

[9] = test system: mouse model of stroke induced by middle cerebral artery occlusion (MCAO); experiment: Cerebral infarct volume by TTC staining (Example 1); assay type: in vivo, ICR mice; details: 10 mg/kg i.v. Bid from 30 min after infarction, 48 h after reperfusion
Protocol: as §3, §4, §5, §6

[10] = test system: rat model of stroke induced by middle cerebral artery occlusion (MCAO); experiment: Cerebral infarct volume by TTC staining (Example 3); assay type: in vivo, SD rats; details: 10 mg/kg (table label) i.v. Bid from 30 min after infarction, 48 h after reperfusion
Protocol: The administration of the respective treatments was started 30 minutes after the MCAO procedure of the rats.
as §4, with “SD rats” for “ICR mice”, “beam-walking, grip” for “beam-walking”, “tests.” for “test.”, “rats” for “mice”, “the” for “the values of the”, “15.” for “1.”
The rats were fasted overnight before modeling and were anesthetized with isoflurane. Right middle cerebral artery occlusion (MCAO) was induced in each rat using the intraluminal filament technique to mimic focal cerebral ischemic stroke. After 2 hrs, reperfusion was allowed by removing the occlusion.
as §6, with “The rats were scored by the Longa method at 24-hours post-procedure. The” for “The”, “function” for “function score”, “at 24-hr” for “at 24 hrs”, “and 48-hr” for “and 48 hrs”, “reperfusion, and” for “reperfusion, as”

[11] = test system: rat model of stroke induced by middle cerebral artery occlusion (MCAO); experiment: Cerebral infarct volume by TTC staining, dosing regimen (Example 4); assay type: in vivo, SD rats; details: 10 mg/kg (table label) i.v. Bid from 30 min after infarction, 14-days post-operation
Protocol: The first administration of the respective treatments was started 30 minutes (Day 1 of study) after the MCAO procedure of the rats. For the butylphthalide group, subsequent doses were administered every day after for 14 days. For the ALMB-0166 test groups, a second dose of the antibody was administered at Day 4 post-stroke (Day 4 of the study). Thirty-six (36) SD rats received behavioral training after adaptive feeding period and before the operation to establish stroke models. The behavioral training included beam-walking, grip and rotarod tests. The experimental rats were then randomly divided into 6 groups according to the body weight, with 6 rats in each test group as described in Table 15. The rats were fasted overnight before modeling and were anesthetized with isoflurane. […] The body weight of rats was recorded before the operation (Day 0 of study) and on Days 2, 4, 7, and 11 after the procedure. The rats were scored by the Longa method at Day 1 (24-hours) post-procedure. The neurological function was evaluated at Days 1, 2, 4, 7, and 14 after the procedure, and was assessed by beam-walking, grip strength, and rotarod tests. […] The total infarct volume was determined, and the infarct volume ratio was calculated by dividing the total infarct volume by the whole brain volume. […]

[12] = test system: mouse model of stroke induced by middle cerebral artery occlusion (MCAO); experiment: Beam-walking test (Example 1); assay type: in vivo, ICR mice; details: 10 mg/kg i.v. Bid from 30 min after infarction
Protocol: as §3, §4, §5, §6

[13] = 10 mg/kg i.v. once 0.5 hr after infarction
[14] = 10 mg/kg i.v. once 2 hr after infarction
[15] = 10 mg/kg i.v. once 6 hr after infarction

For `CCCCC1OC(=O)c2ccccc21` (stereo not shown) [Butylphthalide], the “Improvement rate of infarction” value [1, 13] was 33.50%, the “Cerebral Infarction Volume” value [1, 14] was 34.25% and the “Improvement rate of infarction” value [1, 14] was 20.25%. For the same molecule, the “Cerebral Infarction Volume” value [1, 15] was 31.89%, the “Improvement rate of infarction” value [1, 15] was 25.76% and the “Rotarod test score, Time” value ([2]; Day 0) was 124.5 s. The “Rotarod test score, Time” value ([2]; Day 2) was 126.8 s, the “Rotarod test score, Time” value ([2]; Day 4) was 122.2 s and the “Rotarod test score, Time” value ([2]; Day 7) was 130.7 s. For the same molecule, the “Rotarod test score, Time” value ([2]; Day 14) was 157.3 s, the “Grip Strength” value ([3]; 24 h) was 206.29 ± 46.55^ g and the “Grip Strength” value ([3]; 48 h) was 214.71 ± 34.19 g. It also gave a Beam-walking time ([4]; Day 0) of 23.13 s, a Beam-walking time ([4]; Day 2) of 28.31 s and a Beam-walking time ([4]; Day 4) of 43.23 s. The Beam-walking time ([4]; Day 7) was 35.65 s, the Beam-walking time ([4]; Day 14) was 16.01 s and the Beam-walking time ([5]; 10 mg/kg i.v. once 0.5 hr after infarction, 24 h) was 57.69 ± 3.94 s. It also gave a Beam-walking time ([5]; 10 mg/kg i.v. once 0.5 hr after infarction, 48 h) of 51.37 ± 16.46 s, a Beam-walking time ([5]; 10 mg/kg i.v. once 2 hr after infarction, 24 h) of 53.12 ± 12.48 s and a Beam-walking time ([5]; 10 mg/kg i.v. once 2 hr after infarction, 48 h) of 52.73 ± 10.98 s. For the same molecule, the Beam-walking time ([5]; 10 mg/kg i.v. once 6 hr after infarction, 24 h) was 10.32 s, the Beam-walking time ([5]; 10 mg/kg i.v. once 6 hr after infarction, 48 h) was 58.57 ± 3.23 s and the Brain volume [6, 13] was 0.403 ± 0.04 mL. The Brain volume [6, 14] was 0.407 ± 0.02 mL, the Brain volume [6, 15] was 0.427 ± 0.03 mL and the Brain water content [7] was 329.50 ± 23.60 mg. For the same molecule, the Brain water ratio [7] was 81.84 ± 1.30%, the Brain volume [8] was 0.413 ± 0.03 mL and the “Cerebral Infarction Volume” value [9] was 27.29 ± 13.07 %. The “Improvement rate of infarction” value ([9]; vs model) was 43.02%, the “Cerebral Infarction Volume” value [10] was 22.41% and the “Improvement rate of infarction” value ([10]; vs model) was 30.84%. The “Cerebral Infarction Volume” value [11] was 15.01%, the “Improvement rate of infarction” value ([11]; vs model) was 23.64% and the Beam-walking time ([12]; 24 h) was 41.27 ± 21.52 s. The Beam-walking time ([12]; 48 h) was 41.92 ± 22.83 s.

— patent US20250059264A1, “METHOD OF TREATING STROKE” (AlaMab Therapeutics, Inc., priority 2023, published 2025)
